# Results published in patent US9334231B2, “Photoreactive synthetic regulator of protein function and methods of use thereof” (The Regents of the University of California, priority 2008, dated 2016).
# Counter-ions that a name gives are not always drawn.
# Key:
# [1] = molecular target: T1, Sh-IR (Drosophila melanogaster, UniProt P08510, DEL6-46); assay: AzoQA structure-activity screen: HEK293T cells expressing Sh-IR, applied in dark, washout, whole-cell voltage clamp; type: cell-based; conditions: for isomer preference of block: cis (380 nm) versus trans (500 nm)
# T1 construct: expressed in transfected cells; host or cells: HEK293 / HEK293T cells, calcium phosphate transfection
# T1 sequence (P08510 other isoform, or with tags, fused parts or gaps DEL6-46): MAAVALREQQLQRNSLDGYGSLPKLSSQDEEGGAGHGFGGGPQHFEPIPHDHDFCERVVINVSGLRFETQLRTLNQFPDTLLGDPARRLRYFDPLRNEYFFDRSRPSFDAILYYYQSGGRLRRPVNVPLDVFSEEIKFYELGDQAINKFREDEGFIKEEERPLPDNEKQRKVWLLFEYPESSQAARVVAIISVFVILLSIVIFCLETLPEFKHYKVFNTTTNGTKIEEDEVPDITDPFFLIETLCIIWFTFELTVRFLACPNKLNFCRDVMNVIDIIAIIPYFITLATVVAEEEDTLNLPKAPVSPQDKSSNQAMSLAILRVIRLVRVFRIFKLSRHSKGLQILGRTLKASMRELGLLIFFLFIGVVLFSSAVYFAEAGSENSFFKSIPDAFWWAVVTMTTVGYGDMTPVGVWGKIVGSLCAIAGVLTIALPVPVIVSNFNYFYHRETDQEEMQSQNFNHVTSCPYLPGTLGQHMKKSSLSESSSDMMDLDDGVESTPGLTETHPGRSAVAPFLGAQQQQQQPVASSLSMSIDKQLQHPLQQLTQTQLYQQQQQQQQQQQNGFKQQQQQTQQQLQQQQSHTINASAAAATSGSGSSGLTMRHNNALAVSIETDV
# Text: Solutions were adjusted to 300-310 mOsm.
# These AzoQA's were applied in dark, which favors the trans configuration, at various concentrations to HEK293T cells expressing Sh-IR, followed by washout and whole-cell voltage clamp recording.
# [2] = test system: endogenous K+ channels in dissociated hippocampal neurons
# [3] = test system: Kν channels; assay: Stated characteristics of exemplary synthetic regulators (channel block)
# [4] = molecular target: T2, Shaker IR channels (Sh-IR) (Drosophila melanogaster, UniProt P08510, DEL6-46); assay: Whole-cell patch clamp of HEK293 cells expressing Shaker IR after AAQ/EtAcAQ/AcAQ treatment; type: cell-based; conditions: 500-nm and 380-nm light; for block of steady-state current: after blocker pre-treatment (400 uM in FIG. 2)
# T2 construct: expressed in transfected cells; host or cells: HEK293 / HEK293T cells, calcium phosphate transfection
# T2 sequence (P08510 other isoform, or with tags, fused parts or gaps DEL6-46): as above
# [5] = test system: endogenous K+ channels in dissociated hippocampal neurons; conditions: preincubation at 300 nM; cited from earlier work
# [6] = illumination at 420 nm
# [7] = molecular target: T3, Sh-IR internal TEA binding site (Drosophila melanogaster, UniProt P08510, DEL6-46); assay: Inside-out patches from HEK293 cells expressing Sh-IR, dose-response under 380 and 500 nm light; type: cell-based; conditions: inside-out patch
# T3 construct: expressed in transfected cells; host or cells: HEK293 / HEK293T cells, calcium phosphate transfection
# T3 sequence (P08510 with tags, fused parts or gaps DEL6-46): as the sequence (P08510 other isoform, or with tags, fused parts or gaps DEL6-46) above
# [8] = Isomerization wavelengths of red-shifted regulator; type: physicochemical
# [9] = molecular target: T4, P2X7R (Homo sapiens, UniProt Q99572); assay: Loading of QAQ through P2X7R in HEK cells co-expressing Shaker channel; type: cell-based
# T4 construct: expressed in transfected cells; host or cells: HEK cells, co-expressed with Shaker channel
# T4 sequence (Q99572 1-595): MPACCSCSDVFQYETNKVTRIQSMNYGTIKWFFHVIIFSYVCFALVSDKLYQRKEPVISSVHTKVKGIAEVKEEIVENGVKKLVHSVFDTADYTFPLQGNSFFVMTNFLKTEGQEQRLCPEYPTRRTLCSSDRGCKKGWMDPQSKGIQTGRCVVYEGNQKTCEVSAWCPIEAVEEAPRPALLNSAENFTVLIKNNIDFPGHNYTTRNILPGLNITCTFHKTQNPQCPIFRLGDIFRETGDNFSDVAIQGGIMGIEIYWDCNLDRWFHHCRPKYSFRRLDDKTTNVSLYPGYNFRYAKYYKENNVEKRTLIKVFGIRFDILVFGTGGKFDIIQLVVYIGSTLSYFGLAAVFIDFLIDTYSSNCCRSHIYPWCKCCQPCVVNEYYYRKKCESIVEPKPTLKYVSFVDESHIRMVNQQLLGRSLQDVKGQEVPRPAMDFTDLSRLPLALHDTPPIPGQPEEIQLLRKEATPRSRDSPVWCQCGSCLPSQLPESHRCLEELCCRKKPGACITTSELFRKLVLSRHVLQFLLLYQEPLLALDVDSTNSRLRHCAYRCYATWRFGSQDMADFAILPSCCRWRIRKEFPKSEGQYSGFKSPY
# Text: (§1) Advantage was taken of the biophysical properties of certain ion channels. TRPV1 channel and the ATP gated P2X7 receptor can open a wide pore upon prolonged agonist exposure. This pore becomes then permeable to large organic cations like the local anesthetic QX314. It was investigated whether QAQ could be loaded into cells expressing either one of these two channels (P2X7R or TRPV1). If so, specific cells could be targeted with QAQ, and then excitability could be controlled with light. This concept is depicted schematically in FIG. 8.
# (§2) It was first determined whether P2X7R expressed in HEK cells could be an entry route for QAQ. P2X7R was co-expressed together with Shaker channel.
# [10] = test system: neurons; assay: Neuron firing under current clamp with QAQ; type: cell-based; conditions: progressively greater current injected
# Text: The effect of QAQ on neurons was investigated. Neuron firing was examined under current clamp, by injecting progressively greater current into the cell, under 2 different wavelengths of light. […] This is because block of Na channels dominates: when Na channels are blocked, the initial phase of the AP is blocked and neurons are silent. Again, QAQ acts like lidocaine in neurons, silencing cells under green light or in the dark.
# [11] = test system: Shaker K channel, Kν2.1, Kν3.1, Kν4.2, hippocampal Kν; assay: QAQ photoswitching of voltage gated K channels (QAQ in the pipette); type: cell-based
# Method: (§3) Experiments were conducted to test the effect of QAQ on various channels.
# (§4) Purple light was used in all cases to relieve the block. FIG. 6 depicts a bar graph showing the quantification of photoswitching on individual channels when having 100 μM QAQ in the pipette.
# [12] = molecular target: T5, TRPV1 (Homo sapiens, UniProt Q8NER1); assay: Loading of QAQ through TRPV1 in cells co-expressing Shaker channel; type: cell-based
# T5 construct: expressed in transfected cells; the context is HEK cells
# T5 sequence (Q8NER1 whole entry, species assumed): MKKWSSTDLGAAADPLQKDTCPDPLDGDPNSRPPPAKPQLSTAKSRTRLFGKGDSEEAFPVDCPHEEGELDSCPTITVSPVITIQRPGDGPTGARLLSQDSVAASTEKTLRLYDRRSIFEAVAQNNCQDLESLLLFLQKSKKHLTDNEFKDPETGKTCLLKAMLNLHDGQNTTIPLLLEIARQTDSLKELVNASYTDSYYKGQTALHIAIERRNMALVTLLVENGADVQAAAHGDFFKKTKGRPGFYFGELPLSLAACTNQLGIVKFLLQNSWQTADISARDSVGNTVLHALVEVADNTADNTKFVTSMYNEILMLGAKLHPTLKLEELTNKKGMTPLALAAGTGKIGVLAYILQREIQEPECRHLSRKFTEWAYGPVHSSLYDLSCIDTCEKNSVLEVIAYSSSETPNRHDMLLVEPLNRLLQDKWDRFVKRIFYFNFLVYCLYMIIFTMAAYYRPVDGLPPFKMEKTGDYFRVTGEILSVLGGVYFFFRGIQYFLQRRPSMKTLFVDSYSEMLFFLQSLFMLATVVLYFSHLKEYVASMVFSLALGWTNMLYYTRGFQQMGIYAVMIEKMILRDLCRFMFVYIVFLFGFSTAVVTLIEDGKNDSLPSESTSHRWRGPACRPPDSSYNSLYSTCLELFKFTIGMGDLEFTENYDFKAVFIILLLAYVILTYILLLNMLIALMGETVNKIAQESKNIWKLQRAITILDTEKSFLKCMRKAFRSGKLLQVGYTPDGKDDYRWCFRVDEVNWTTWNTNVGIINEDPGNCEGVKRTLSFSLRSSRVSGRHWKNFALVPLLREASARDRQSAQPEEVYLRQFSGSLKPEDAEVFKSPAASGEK
# Text: as §1, §2
# [13] = test system: L type and N type Ca channels (L-type Caν, Caν2.2); assay: QAQ photoswitching of Ca channels; type: cell-based
# Method: as §3, §4
# [14] = molecular target: T6, Shaker channel (Drosophila melanogaster, UniProt P08510); assay: QAQ membrane permeance: patch pipette versus external application, HEK cells expressing Shaker channel; type: cell-based
# T6 construct: expressed in transfected cells; host or cells: HEK cells
# T6 sequence (P08510 whole entry): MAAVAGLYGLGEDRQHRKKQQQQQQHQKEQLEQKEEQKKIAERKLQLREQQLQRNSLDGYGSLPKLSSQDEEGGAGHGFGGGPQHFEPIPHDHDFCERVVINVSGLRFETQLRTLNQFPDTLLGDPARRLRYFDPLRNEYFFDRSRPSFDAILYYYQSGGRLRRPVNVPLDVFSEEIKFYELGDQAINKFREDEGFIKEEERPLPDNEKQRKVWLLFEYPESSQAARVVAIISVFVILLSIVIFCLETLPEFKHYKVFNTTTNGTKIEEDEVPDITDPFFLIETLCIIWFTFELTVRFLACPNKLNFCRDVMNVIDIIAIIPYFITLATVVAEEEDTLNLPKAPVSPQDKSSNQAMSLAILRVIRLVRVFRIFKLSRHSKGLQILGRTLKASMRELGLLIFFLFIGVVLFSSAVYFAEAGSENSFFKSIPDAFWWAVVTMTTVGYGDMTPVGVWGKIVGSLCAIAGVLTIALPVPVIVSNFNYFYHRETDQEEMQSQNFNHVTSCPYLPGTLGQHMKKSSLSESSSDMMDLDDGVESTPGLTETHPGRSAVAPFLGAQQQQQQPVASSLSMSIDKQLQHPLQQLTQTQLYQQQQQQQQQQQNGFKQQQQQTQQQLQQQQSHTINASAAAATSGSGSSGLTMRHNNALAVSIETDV
# Text: The K current was observed upon a depolarization to +40 mV under purple 380 nm light.
# [15] = test system: native Na channels expressed in NG108-15 cells (Naν); assay: QAQ photoswitching of native Na channels in NG108-15 cells; type: cell-based
# Method: as §3, §4
# [16] = molecular target: T4, P2X7R; assay: Loading of QAQ into hippocampal neurons transfected with P2X7R; type: cell-based
# Text: (§5) Hippocampal neurons were transfected with P2X7R. […] In 1 of 13 cells tested, QAQ entered a cell which was not heterologously expressing P2X7R, possibly because this cell was expressing endogenous P2X7 receptors. It was then asked whether QAQ could enter cells naturally expressing either of these channels and looked at sensory neurons. Sensory neurons are activated by sensory input and project towards the central nervous system. Sensory neurons of the trigeminal ganglia naturally express TRPV1 channels. QAQ was applied together with capsaicin on these sensory neurons in in vitro culture.
# [17] = test system: native K channels of sensory neurons naturally expressing TRPV1; assay: QAQ with capsaicin on sensory neurons of the trigeminal ganglia in culture; type: cell-based; conditions: QAQ applied together with capsaicin
# Text: as §5
# [18] = test system: capsaicin-evoked nocifensive behaviors; assay: Capsaicin-evoked nocifensive behaviors after hindpaw injection; type: in vivo, mouse; conditions: co-injection with capsaicin into hindpaw, 10 min, versus capsaicin alone
# Method: It was shown (Example 3) that QAQ blocks capsaicin-evoked sensory neuron activation in vitro, in a light-dependent manner. It was then tested whether QAQ can block nocifensive responses in vivo, and whether this action can be regulated by light. This experiment consisted of 2 parts: (1) it was tested whether QAQ acts as an analgesic, in the absence of light. […] Injection of capsaicin into the mouse hindpaw elicits a 5-10 min bout of licking and flinching; such responses are blocked by co-application of lidocaine, morphine, and other analgesics (Binshtock et al., 2007 Nature 449:607-10). Because analgesics are molecules that alleviate pain, evaluating the analgesic properties of a new molecule requires induction of discomfort in animals. The ability of QAQ to inhibit capsaicin-evoked nocifensive behaviors was tested. Fourteen mice were used for this experiment: to one set of 7 mice, capsaicin alone was applied by injection; to a second set of 7 mice, capsaicin and QAQ were co-injected. The mice were then placed in a transparent Plexiglas chamber and behavior was video recorded for 10 min. After 10 min, mice were euthanized.
# [19] = 100 μM QAQ in the pipette, purple light relieves block
smiles,measurement,setting,value
"CC[N+](CC)(CC)CC(=O)Nc1ccc(/N=N/c2ccc(NC(=O)c3ccccc3)cc2)cc1 [BzAQ, 4-benzamido-4′-(2)-triethylammoniumacetamidoazobenzene formate]",minimal dose able to block >95% of Iss,"[1]; Iss relative to that under 380 nm illumination, extracellular treatment in dark",25 µM
same,Iss blocked,"[2]; 20 μM BzAQ extracellular, Iss at +30 mV compared at 380 and 500 nm",57+/−6.6%
same,action potential firing,"[2]; current clamp, cell near threshold, 500 nm light",sufficient to induce action potential firing
same,effect on cellular membrane potential,"[2]; current clamp, switched from cis to trans",significantly depolarize the cellular membrane potential
same,channels blocked / selectivity,[3],selective for Kν channels
same,external or internal blocker,[3],external blocker
same,isomeric form that blocks,[3],trans-blocker
CCC(=O)Nc1ccc(N=Nc2ccc(NC(=O)C[N+](CC)(CC)CC)cc2)cc1 [EtAcAQ],block of steady-state current,[4],persistently blocked the entire steady-state current in a light-dependent fashion
"C=CC(=O)Nc1ccc(/N=N/c2ccc(NC(=O)C[N+](CC)(CC)CC)cc2)cc1 [AAQ, Acrylamide Azobenzene Quaternary ammonium]",photosensitization of endogenous K+ channels,[5],strongly photosensitize endogenous K^+
same,cis isomer content,[6],50%
same,current block after washout with control solution,[7],relieved within several seconds of washout
same,IC50,"[7]; 380 nm light, n=3-5, read-out: IC50 (cis isomer)",64 µM
CCN(CC)c1ccc(/N=N/c2ccc(NC(=O)C[N+](CC)(CC)CC)cc2)cc1 [DAAQ],wavelength of first isomeric form,[8],472 nm
same,wavelength of second isomeric form,[8],550 nm
same,channels blocked / selectivity,[3],able to block Kν channels
same,external or internal blocker,[3],external blocker
same,isomeric form that blocks,[3],trans-blocker
"CC[N+](CC)(CC)CC(=O)Nc1ccc(N=Nc2ccc(NC(C)=O)cc2)cc1.O=C[O-] [AcAQ, 4-acetamido-4′-(2)-triethylammoniumacetamidoazobenzene formate]",block of steady-state current,[4],persistently blocked the steady-state current in a light-dependent fashion
same,photoswitching after pre-treatment,[4]; extracellular pre-treatment,considerable sustained photoswitching
"C=CCCC(=O)Nc1ccc(N=Nc2ccc(NC(=O)C[N+](CC)(CC)CC)cc2)cc1.O=C[O-] [compound 10, 4-(pent-4-en)amido-4′-(2)-triethylammoniumacetamidoazobenzene formate]",isomer preference of block,[1],essentially equal block in both cis and trans forms
"CCCc1ccc(N=Nc2ccc(NC(=O)C[N+](CC)(CC)CC)cc2)cc1.O=C[O-] [PrAQ, 4-propyl-4′-(2)-triethylammoniumacetamidoazobenzene formate]",block of Iss in the cis form,[1]; 40 nM,50%
same,block by the trans isomer,"[1]; 40 nM, 500 nm",without producing obvious block
same,isomer preference of block,[1],preferentially blocks in the cis form
CC[N+](CC)(CC)CC(=O)Nc1ccc(/N=N/c2ccc(NC(=O)C[N+](CC)(CC)CC)cc2)cc1 [QAQ],loading into HEK cells,"[9]; P2X7R co-expressed with Shaker, ATP coapplied","could be loaded in the HEK cell only if P2X7 channels were expressed and ATP, the agonist for the P2X7 channels, was coapplied"
same,photoswitching of Shaker channels current,[9]; application of 5 min with ATP,very good photoswitching
same,neuron firing under green light,[10],"does at best one action potential (AP), but remains silent"
same,neuron firing under purple light,[10],fires normally
same,photoregulation of K channels,[11],"photoregulate Shaker K channel and also other K channel subtypes such as Kν2, Kν3 Kν4 and native K channels in hippocampal cells"
same,light condition of block,[11]; [19],"the block occurred in the dark, or under 500 nm light"
same,loading into cells,"[12]; TRPV1 co-expressed with Shaker, capsaicin",could be loaded into cells co-expressing TRPV1 and Shaker channel in the presence of the TRPV1 agonist capsaicin
same,photoswitching,[12]; loaded in the presence of capsaicin,photoswitching could be effected
same,photosensitization of Ca channels,[13],photosensitize L type and N type Ca channels
same,light condition of block,[13]; [19],"the block occurred in the dark, or under 500 nm light"
same,membrane permeance,[14],membrane impermeant
same,"photoregulation of K current, applied through the patch pipette","[14]; 100 μM QAQ, +40 mV, 380 nm versus green light",photoregulation of the K channel current was observed
same,"photoregulation of K current, externally applied",[14]; external application,no photoregulation of K current was seen
same,photosensitization of Na channels,[15],photosensitizes native Na channels expressed in NG108-15 cells
same,light condition of block,[15]; [19],"the block occurred in the dark, or under 500 nm light"
same,loading into hippocampal neurons,[16]; ATP,could be loaded into cells only when P2X7 receptors were expressed
same,cells not heterologously expressing P2X7R that QAQ entered,[16]; cells tested,1 of 13
same,photoswitching of native K channels,[17],very robust photoswitching of native K channels
same,channels blocked / selectivity,[3],"able to block Kν, Naν, and Caν channels"
same,external or internal blocker,[3],internal blocker
same,isomeric form that blocks,[3],trans-blocker
same,number of licks,[18],reduced
same,time spent paw lifting,[18],reduced
